Source: US20150099800A1, “NOVEL LIPASE INHIBITORS, REPORTER SUBSTRATES AND USES THEREOF” (Northeastern University, priority 2012, published 2015)
Read-outs that look alike come from different tables or passages of the source.

What was measured:
[1] = target: T1, hDAGLα (Homo sapiens, UniProt Q9Y4D2); assay: biochemical; conditions: read-out: hDAGLα inhibition at 10 μM TLC (with Triton X-100) (%), 10 μM; 0.05% Triton X-100 present
T1 sequence (Q9Y4D2 1-1042): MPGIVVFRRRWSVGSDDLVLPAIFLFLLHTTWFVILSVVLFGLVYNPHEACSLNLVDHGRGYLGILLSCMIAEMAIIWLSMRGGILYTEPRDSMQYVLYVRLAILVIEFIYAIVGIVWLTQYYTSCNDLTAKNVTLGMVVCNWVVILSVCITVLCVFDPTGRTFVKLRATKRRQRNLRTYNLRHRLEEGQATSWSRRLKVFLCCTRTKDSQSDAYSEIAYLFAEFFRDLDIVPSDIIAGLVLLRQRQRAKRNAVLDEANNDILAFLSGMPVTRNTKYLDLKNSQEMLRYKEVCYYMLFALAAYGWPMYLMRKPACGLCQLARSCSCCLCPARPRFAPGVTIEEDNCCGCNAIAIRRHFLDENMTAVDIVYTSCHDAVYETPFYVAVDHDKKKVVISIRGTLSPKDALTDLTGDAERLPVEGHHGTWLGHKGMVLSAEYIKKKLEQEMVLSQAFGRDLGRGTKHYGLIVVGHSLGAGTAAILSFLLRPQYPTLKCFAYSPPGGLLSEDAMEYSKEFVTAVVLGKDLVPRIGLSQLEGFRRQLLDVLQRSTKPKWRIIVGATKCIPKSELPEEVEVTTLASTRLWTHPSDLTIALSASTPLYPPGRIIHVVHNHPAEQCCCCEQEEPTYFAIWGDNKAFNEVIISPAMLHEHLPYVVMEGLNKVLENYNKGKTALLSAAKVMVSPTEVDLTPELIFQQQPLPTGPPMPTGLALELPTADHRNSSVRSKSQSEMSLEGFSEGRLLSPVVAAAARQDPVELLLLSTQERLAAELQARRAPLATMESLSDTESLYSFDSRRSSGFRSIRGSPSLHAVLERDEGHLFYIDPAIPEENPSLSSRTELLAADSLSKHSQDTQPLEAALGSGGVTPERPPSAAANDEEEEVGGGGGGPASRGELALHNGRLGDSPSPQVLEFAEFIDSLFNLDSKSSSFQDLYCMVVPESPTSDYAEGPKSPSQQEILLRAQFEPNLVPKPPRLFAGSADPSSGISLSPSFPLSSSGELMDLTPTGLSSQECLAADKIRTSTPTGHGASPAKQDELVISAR

[2] = tested on: pancreatic and extrapancreatic fat necrosis; conditions: literature, cited from earlier work
[3] = target: T2, mDAGLα (Mus musculus, UniProt Q6WQJ1); assay: Radio-TLC assay with [14C]SAG substrate, mDAGLα; conditions: for potency for mDAGLα relative to analogs of (S)-α-amino acids: 10 nM to 10 μM
T2 sequence (Q6WQJ1 1-1044): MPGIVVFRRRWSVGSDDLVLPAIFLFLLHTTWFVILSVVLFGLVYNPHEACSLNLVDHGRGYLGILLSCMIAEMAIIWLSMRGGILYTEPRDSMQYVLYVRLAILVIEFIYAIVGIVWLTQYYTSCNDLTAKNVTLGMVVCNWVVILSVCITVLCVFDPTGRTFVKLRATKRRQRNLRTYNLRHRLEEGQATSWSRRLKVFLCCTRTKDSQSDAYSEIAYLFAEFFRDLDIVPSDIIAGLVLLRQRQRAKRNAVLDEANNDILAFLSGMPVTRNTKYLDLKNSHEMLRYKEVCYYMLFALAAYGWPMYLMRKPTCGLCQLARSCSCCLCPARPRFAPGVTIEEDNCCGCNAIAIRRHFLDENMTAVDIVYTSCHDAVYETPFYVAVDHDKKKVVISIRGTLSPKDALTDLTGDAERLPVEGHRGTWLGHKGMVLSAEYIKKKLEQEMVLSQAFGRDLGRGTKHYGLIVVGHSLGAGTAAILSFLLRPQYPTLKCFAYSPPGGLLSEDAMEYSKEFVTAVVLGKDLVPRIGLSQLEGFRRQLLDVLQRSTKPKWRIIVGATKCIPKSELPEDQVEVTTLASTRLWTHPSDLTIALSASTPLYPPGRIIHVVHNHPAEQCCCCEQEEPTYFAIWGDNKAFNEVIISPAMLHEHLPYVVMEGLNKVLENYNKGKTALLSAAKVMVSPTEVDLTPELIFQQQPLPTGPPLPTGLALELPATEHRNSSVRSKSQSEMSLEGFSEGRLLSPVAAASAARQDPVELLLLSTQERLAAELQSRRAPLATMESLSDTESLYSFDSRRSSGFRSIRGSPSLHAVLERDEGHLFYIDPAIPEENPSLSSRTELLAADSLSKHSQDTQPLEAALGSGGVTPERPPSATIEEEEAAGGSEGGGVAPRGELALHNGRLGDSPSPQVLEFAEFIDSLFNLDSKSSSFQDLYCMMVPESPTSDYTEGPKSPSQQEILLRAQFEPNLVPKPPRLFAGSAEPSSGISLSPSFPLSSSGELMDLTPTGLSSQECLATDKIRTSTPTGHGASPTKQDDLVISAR

[4] = tested on: cannabinoid receptors; conditions: cited from earlier work
[5] = tested on: FAAH; conditions: cited from earlier work
[6] = target: T3, MAGL (Homo sapiens, UniProt Q99685); conditions: cited from earlier work
T3 sequence (Q99685 1-303): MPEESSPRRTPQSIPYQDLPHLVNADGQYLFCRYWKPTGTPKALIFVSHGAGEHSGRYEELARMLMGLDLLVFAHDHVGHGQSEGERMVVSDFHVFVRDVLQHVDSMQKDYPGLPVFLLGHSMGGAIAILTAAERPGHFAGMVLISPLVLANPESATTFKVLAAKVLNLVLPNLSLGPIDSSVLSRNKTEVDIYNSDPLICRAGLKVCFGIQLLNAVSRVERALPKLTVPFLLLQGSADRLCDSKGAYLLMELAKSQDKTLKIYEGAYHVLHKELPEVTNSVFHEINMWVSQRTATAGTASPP

[7] = tested on: DAGL; conditions: cited from earlier work
[8] = intraperitoneal (IP) injections

Compound: CCCCCCCCCCC[C@@H](C[C@@H]1OC(=O)[C@H]1CCCCCC)OC(=O)[C@H](CC(C)C)NC=O [Compound 3, tetrahydrolipstatin]
- inhibition at 10 µM [1]: 100%
- effect on concentration of free fatty acid in the blood [2, 8]: no effect
- lowering of lipase activity in the blood [2, 8]: small effect
- prevention of pancreatic and extrapancreatic fat necrosis ([2]; rodents): not effective
- inhibition at 0.01 µM ([3]; read-out: mDAGLα inhibition at 10 nM (%)): 55%
- inhibition at 0.1 µM ([3]; read-out: mDAGLα inhibition at 100 nM (%)): 72%
- binding to the cannabinoid receptors, previous reports ([4]; literature): did not bind
- inhibition of FAAH activity reported in the literature ([5]; literature): poor inhibitors
- inhibition of MAGL activity reported in the literature ([6]; literature): poor inhibitors

Compound: CCCCCCCCCCCC(CC1OC(=O)C1CCCCCC)OC(=O)C(NC=O)C(C)CC (stereo not drawn) [Compound 6]
- mDAGLα inhibition at 10 nM (%) [3]: 33%
- potency for mDAGLα relative to analogs of (S)-α-amino acids [3]: clearly less potent
- mDAGLα inhibition at 100 nM (%) [3]: 29%
- mDAGLα inhibition at 1000 nM (%) [3]: 69%
- mDAGLα inhibition at 10000 nM (%) ([3]; 10000 nM): 85%

Compound: CCCCCCCCCCC[C@@H](C[C@@H]1OC(=O)[C@H]1CCCCCC)OC(=O)[C@H](NC=O)[C@@H](C)CC [Compound 7]
- mDAGLα inhibition at 10 nM (%) [3]: 19%
- potency for mDAGLα relative to analogs of (S)-α-amino acids [3]: clearly less potent
- mDAGLα inhibition at 100 nM (%) [3]: 51%
- mDAGLα inhibition at 1000 nM (%) [3]: 75%
- mDAGLα inhibition at 10000 nM (%) ([3]; 10000 nM): 90%

Compound: O=C(Oc1ccc([N+](=O)[O-])cc1)N1CCC(C(O)(c2ccc3c(c2)OCO3)c2ccc3c(c2)OCO3)CC1 [JZL184]
- mDAGLα inhibition at 10000 nM (%) [3]: 3%
- binding to the cannabinoid receptors, previous reports [4]: did not bind
- inhibition of FAAH activity reported in the literature [5]: poor inhibitors
- inhibition of MAGL activity reported in the literature [6]: poor inhibitors
- effect on DAGL activity reported in the literature [7]: poor inhibitors
